In data set [1] the test system is Jurkat. As to the kind of experiment: Increase in cell surface thiol level in human Jurkat cells at 40 uM after 2 days by avidin-FITC staining-based FACS analysis relative to untreated control. It is filed as functional. A general note: Flow cytometry measures light scatter and fluorescence of single cells or particles in a stream.
Data set [2] has as its system Jurkat. As to the kind of experiment: Increase in cell surface thiol level in human Jurkat cells at 10 uM after 64 hrs by avidin-FITC staining-based FACS analysis relative to untreated control. It is filed as functional.
Data set [3] concerns Jurkat. As to the kind of experiment: Increase in cell surface thiol level in human Jurkat cells at 160 uM after 64 hrs by avidin-FITC staining-based FACS analysis relative to untreated control. It is filed as functional.
Data set [4] concerns Jurkat. Nature of the data set: Increase in cell surface thiol level in human Jurkat cells at 320 uM after 64 hrs by avidin-FITC staining-based FACS analysis relative to untreated control. It is filed as functional.
Data set [5] relates to Jurkat. As to the kind of experiment: Increase in N-thioglycolylneuraminic acid level in human Jurkat cells at 10 uM after 2 hrs by avidin-FITC staining-based FACS analysis in presence of disulfide reducing agent TCEP relative to untreated control. It is filed as functional.
The test system of data set [6] is Jurkat. As to the kind of experiment: Increase in N-thioglycolylneuraminic acid level in human Jurkat cells at 10 uM after 2 hrs by avidin-FITC staining-based FACS analysis in absence of disulfide reducing agent TCEP relative to untreated control. It is filed as functional.
For data set [7], the system named is Jurkat. Nature of the data set: Induction of human Jurkat cell adhesion assessed as spontaneous clustering of cells at 50 uM after 2 days by inverted microscopy. It is filed as functional, cell-based.
Data set [8] deals with Jurkat. Nature of the data set: Induction of human Jurkat cell adhesion assessed as covalent cellular attachment to maleimide functionalized BSA-coated superaldehyde glass surface at 100 uM after 48 hrs by fluorescence microscopy. It is filed as functional, cell-based.
Data set [9] has as its system Jurkat. As to the kind of experiment: Induction of human Jurkat cell adhesion assessed as covalent cellular attachment to BSA-coated superaldehyde glass surface at 100 uM after 48 hrs by fluorescence microscopy in absence of maleimide coating. It is filed as functional, cell-based.
Data set [10] has as its system Jurkat. Nature of the data set: Cytotoxicity against human Jurkat cells at 100 uM after 48 hrs. It is filed as cell-based.
Data set [11] relates to Lvec. As to the kind of experiment: Increase in N-thioglycolylneuraminic acid level in human LVEC at 10 uM after 7 days by avidin-FITC staining-based FACS analysis relative to untreated control. It is filed as functional.
In data set [12] the test system is Lvec. As to the kind of experiment: Increase in N-thioglycolylneuraminic acid level in human LVEC after 7 days by avidin-FITC staining-based FACS analysis relative to untreated control. It is filed as functional, cell-based.
The test system of data set [13] is Lvec. As to the kind of experiment: Increase in N-thioglycolylneuraminic acid level in human LVEC at 10 uM after 3 days by avidin-FITC staining-based FACS analysis. It is filed as functional, cell-based.
The test system of data set [14] is Lvec. As to the kind of experiment: Effect on human LVEC cell morphology cultured on gold-coated cover slips at 10 uM measured on day 9 post treatment by DAPI staining-based confocal microscopy. It is filed as functional.
Data set [15] is described as follows: Induction of human LVEC cell differentiation into neural cell lineage cultured on gold-coated cover slips assessed as effect on cytoskeleton distribution at 10 uM measured on day 9 post treatment by DAPI staining-based confocal microscopy. It is filed as functional.
A short description of data set [16]: Decrease in human LVEC cell proliferation at 10 uM for 3 days followed by second treatment of 50 uM on day 4 measured on day 9 by nestin immunostaining. It is filed as cell-based. The note with it: 72 h.
Data set [17] deals with Lvec. As to the kind of experiment: Increase in beta-casein expression in human LVEC cultured on gold-coated cover slips at 10 uM after 13 days by oregon green 488 phalloidin and DAPI staining. It is filed as functional, cell-based.
The test system of data set [18] is Lvec. Nature of the data set: Translocation of beta-casein into nucleus of human LVEC cultured on gold-coated cover slips at 10 uM after 13 days by oregon green 488 phalloidin and DAPI staining. It is filed as functional, cell-based.
For data set [19], the system named is Lvec. As to the kind of experiment: Mild increase in beta-casein expression in human LVEC cultured on glass surface at 10 uM after 13 days by oregon green 488 phalloidin and DAPI staining. It is filed as functional, cell-based.
Data set [20] deals with Jurkat. As to the kind of experiment: Modulation of cell surface thiol level in human Jurkat cells at 100 uM after 64 hrs by avidin-FITC staining-based FACS analysis. It is filed as functional.

Consider four molecules from ChEMBL document CHEMBL1221180, “Metabolic installation of thiols into sialic acid modulates adhesion and stem cell biology” (Nat Chem Biol, 2006).

Calls of active or inactive are those of the source. No cut-off for these calls is given here.

Take `CC(=O)OC[C@H]1O[C@H](OC(C)=O)[C@@H](NC(=O)CSC(C)=O)[C@@H](OC(C)=O)[C@@H]1OC(C)=O`: the “fold change (FC)” value with Jurkat [1] was determined as 14; in the data set on Jurkat [2], 19; with Jurkat [3], 40; in the data set on Jurkat [4], 34; with Jurkat [5], 120; with Jurkat [6] it was 13. The “fold change (FC)” value in the data set on Lvec [11] stood at 15. Besides, the result (in the data set with Jurkat [7]; with Jurkat [8]; with Lvec [13]; in the data set with Lvec [14]; in data set [15]; in the data set on Lvec [17]) was Active. The outcome with Lvec [18] and with Lvec [19] was Active. In addition, the result with Jurkat [9] was inactive. Further, the results for the Activity result (in the data set on Jurkat [10]; in the data set on Lvec [12]; in data set [16]) were “Non-toxic”, “Dose-dependent effect” and “Toxic”, respectively.
Turning to `CC(=O)CCC(=O)N[C@@H]1C(OC(C)=O)O[C@H](COC(C)=O)[C@@H](OC(C)=O)[C@@H]1OC(C)=O` (stereo partly specified), the “fold change (FC)” value in the data set on Jurkat [4] amounted to 34.
As for `CC(=O)OCC(=O)N[C@@H]1[C@@H](OC(C)=O)O[C@H](COC(C)=O)[C@@H](OC(C)=O)[C@@H]1OC(C)=O`, the result in the data set on Jurkat [20], in the data set with Jurkat [9] and in the data set on Lvec [14] was inactive. In addition, the outcome with Jurkat [7] and with Jurkat [8] was Active.
As for `CC(=O)N[C@@H]1C(OC(C)=O)O[C@H](COC(C)=O)[C@@H](OC(C)=O)[C@@H]1OC(C)=O` (stereo partly specified), the “fold change (FC)” value in the data set with Jurkat [4] worked out at 34.
